Format in all cases: in vivo, human
Conditions in all cases: using only lidocaine

The nature of test [1]: Anesthetic trial in general liposuction operations. As for the experimental part: The above components were dissolved in a small amount (<1 mL) of distilled water and mixed homogeneously, and the mix was then diluted to 150 mL to yield the L.S.Z. solution.
50 bottles were filled each with 500 mL normal saline solution. […] The bottles were shaken respectively to mix well, yielding L.S.Z. anesthetic solution having a long duration of action.
Then, a common syringe with a 25 cm long needle was used to inject subcutaneously the above anesthetic solution in 45 sites of a […], 1.70 m in height, and 90 kg in weight. While injecting the anesthetic solution, liposuction was conducted using a liposuction tube, finally removing 18 L aspirated fat solution in total. The operation lasted for about 9 hours and the weight of the subject was reduced by 15 kg in total.

Test [2] can be described thus: Anesthetic trial in middle area operations: liposuction in the abdomen. The protocol:
The above components were dissolved in a small amount (<1 mL) of distilled water and mixed homogeneously, and the mixture was then diluted to 10 mL to yield the L.S.Z. solution.
10 bottles were filled each with 500 mL of normal saline solution. To each bottle was added 10 ml 2% lidocaine solution (as described in Example 1), and 1 mL of the L.S.Z. solution. The bottles were shaken respectively to mix well, yielding L.S.Z. anesthetic solution having a long duration of action.
[…] While injecting the anesthetic solution, liposuction was conducted using a liposuction tube, finally removing 3500 mL aspirated fat solution in total. The operation lasted 1 hour. When injecting, 3 injection points, the subcutaneous depth of 1-2 cm, and radiation injection around the injection point were chosen to form 3 anesthetic zones with a radius of 15 cm. After injection, the onset time shortened from the original about 1 min (using only lidocaine) down to about 5 sec, and the duration of analgesia prolonged from the original 4 hours (using only lidocaine) to about 9 days.

A short description of test [3]: Anesthetic trial in large area operations: liposuction in the lower limb (buttock, thigh, calf). As for the experimental part: The above components were dissolved in a small amount (<1 mL) of distilled water and mixed homogeneously, and the mix was then diluted to 60 mL to yield the L.S.Z. solution.
20 bottles were filled each with 500 mL normal saline solution. To each bottle was added 15 mL of 2% lidocaine solution (as described in Example 1) and 3 mL of the L.S.Z. solution as prepared in this Example. The bottles were shaken respectively to mix well, yielding L.S.Z. anesthetic solution having a long duration of action.
[…] While injecting the anesthetic solution, liposuction was conducted using a liposuction tube, finally removing 6 L aspirated fat solution in total. The operation lasted for about 3 hours. When injecting, 8 injection points, the subcutaneous depth of 1-2 cm, and the radiation injection method around the injection point were chosen to form 8 anesthetic zones with a radius of 20 cm. After injection, the onset time shortened from the original about 1 min (using only lidocaine) down to around 5 sec, and the duration of analgesia prolonged from the original 4 hours (using only lidocaine) to about 9 days.

Turning to `CCN(CC)CC(=O)Nc1c(C)cccc1C` [lidocaine], the duration of analgesia in test [1], in test [2] and in test [3] was 4 h in each case. Further, the onset time entry in test [1], in test [2] and in test [3] was “about 1 min” each time.

The values above are taken from patent publication US7928141B2 (priority 2005, dated 2011).
